From ChEMBL document CHEMBL5154671 (Eur J Med Chem, 2022) come the findings set out here.

Data set [1] deals with T1, Peroxisome proliferator-activated receptor alpha (Homo sapiens, UniProt Q07869).
T1 sequence (Q07869 whole entry): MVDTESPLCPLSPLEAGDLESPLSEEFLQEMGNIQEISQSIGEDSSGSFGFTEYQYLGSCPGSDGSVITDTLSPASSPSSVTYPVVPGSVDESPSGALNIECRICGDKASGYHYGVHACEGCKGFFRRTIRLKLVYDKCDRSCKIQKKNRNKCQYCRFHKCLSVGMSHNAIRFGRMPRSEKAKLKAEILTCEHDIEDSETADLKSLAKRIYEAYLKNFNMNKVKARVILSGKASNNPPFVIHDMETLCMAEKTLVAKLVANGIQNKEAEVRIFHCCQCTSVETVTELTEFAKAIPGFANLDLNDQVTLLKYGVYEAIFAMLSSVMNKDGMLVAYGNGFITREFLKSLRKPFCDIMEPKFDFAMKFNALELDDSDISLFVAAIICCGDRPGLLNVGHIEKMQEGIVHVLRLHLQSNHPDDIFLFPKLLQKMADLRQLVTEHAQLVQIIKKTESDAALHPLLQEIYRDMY
Description: Agonist activity at human PPARalpha measured by dual luciferase reporter gene assay. Background: A reporter such as luciferase makes a cellular process visible.

The target of data set [2] is T2, Peroxisome proliferator-activated receptor delta (Homo sapiens, UniProt Q03181).
T2 sequence (Q03181 whole entry): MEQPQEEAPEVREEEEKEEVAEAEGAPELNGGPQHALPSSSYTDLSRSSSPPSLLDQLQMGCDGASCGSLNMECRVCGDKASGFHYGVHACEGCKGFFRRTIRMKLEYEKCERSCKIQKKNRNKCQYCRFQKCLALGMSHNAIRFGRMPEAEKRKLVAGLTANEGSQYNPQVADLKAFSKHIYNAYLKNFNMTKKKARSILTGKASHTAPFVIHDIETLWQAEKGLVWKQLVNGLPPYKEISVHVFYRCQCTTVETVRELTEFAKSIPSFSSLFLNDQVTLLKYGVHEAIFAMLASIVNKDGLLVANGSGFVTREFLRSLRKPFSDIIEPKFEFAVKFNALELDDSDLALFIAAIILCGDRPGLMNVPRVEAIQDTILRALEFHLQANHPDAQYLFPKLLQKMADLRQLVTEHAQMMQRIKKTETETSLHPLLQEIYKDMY
Description: Agonist activity at human PPARdelta measured by dual luciferase reporter gene assay.

The test system of data set [3] is Mus musculus. The data set can be described thus: Anti-NASH activity in high-fat/high-sugar diet and CCl4-induced nonalcoholic steatohepatitis male C57BL/6 mouse assessed as decrease in hepatic TC level at 100 mg/kg, po administered for 4 weeks. Type of data set: functional, organism-based.
Data set [4] has as its system Mus musculus. The data set can be described thus: Protection against liver fibrosis in high-fat/high-sugar diet and CCl4-induced nonalcoholic steatohepatitis male C57BL/6 mouse assessed as decrease in collagen area at 100 mg/kg, po administered for 4 weeks. Format: functional, organism-based.
In data set [5] the test system is Mus musculus. Description: Protection against liver fibrosis in high-fat/high-sugar diet and CCl4-induced nonalcoholic steatohepatitis male C57BL/6 mouse assessed as decrease in alpha-SMA expression in liver at 100 mg/kg, po administered for 4 weeks. Format: functional, organism-based.
For data set [6], the system named is Mus musculus. Description: Anti-inflammatory activity in high-fat/high-sugar diet and CCl4-induced nonalcoholic steatohepatitis male C57BL/6 mouse assessed as decrease in IL-6 mRNA expression at 100 mg/kg, po administered for 4 weeks. Type of data set: functional, organism-based.
Data set [7] deals with Mus musculus. Description: Anti-fibrotic activity in high-fat/high-sugar diet and CCl4-induced nonalcoholic steatohepatitis male C57BL/6 mouse assessed as decrease in TGF-beta mRNA expression at 100 mg/kg, po administered for 4 weeks. Type of data set: functional, organism-based.
Data set [8] has as its system Mus musculus. Description: Anti-fibrotic activity in high-fat/high-sugar diet and CCl4-induced nonalcoholic steatohepatitis male C57BL/6 mouse assessed as decrease in TIMP-1 mRNA expression at 100 mg/kg, po administered for 4 weeks. Format: functional, organism-based.
Data set [9] has as its system Mus musculus. The data set can be described thus: Protection against CCl4-induced liver fibrosis in male C57BL/6 mouse assessed as decrease in collagen area in liver at 100 mg/kg measured by masson staining. Type of data set: functional, organism-based.
Data set [10] deals with Mus musculus. The data set can be described thus: Protection against CCl4-induced liver fibrosis in male C57BL/6 mouse assessed as decrease in hepatic hydroxyproline content at 100 mg/kg […]. Type of data set: functional, organism-based.
The nature of data set [11]: Acute toxicity in ICR mouse assessed as change in serum DBIL level at 500 mg/kg, IG. Type of data set: organism-based. The conditions noted are these: in vivo, po.
The nature of data set [12]: Acute toxicity in ICR mouse assessed as change in serum CKMB level at 500 mg/kg, IG. Type of data set: organism-based. The following applies: in vivo, po.

Activity calls are given as the source filed them. No cut-off for these calls is given here.

A word on the EC50: it is the concentration that produces a half-maximal response. Read a high EC50 as a less potent agent.

Take `COc1ccc(/C=C/c2cc(OC)cc(OCc3ccc(OCC(=O)O)c(F)c3)c2)cc1`: the EC50 in [1] was 8.5 µM; in data set [2], 4.8 µM. The outcome in [3], in data set [4], in data set [5], in [6], in [7] and in data set [8] was Active. For the same molecule, the result in data set [9] and in data set [10] was Active. Moreover, the Activity result in [11] and in data set [12] was “Non-Toxic” each time.
